Reference: patent publication US11654136B2, “Phosphoinositide 3-kinase inhibitor with a zinc binding moiety” (Curis, Inc., priority 2011, dated 2023)
Entries after “also recorded” stand apart in the source; their conditions may differ.

Tests used:
[1] = test system: Salmonella typhimurium TA98; assay: Mini-Salmonella/mammalian-microsome reverse mutation assay TA98
Procedure: The tester strains used in the mutagenicity assay were Salmonella typhimurium tester strains TA98 (for detecting frame-shift reverse mutation) and TA100 (for detecting point reverse mutation). The assay was conducted in both the presence and absence of S9 mixture along with concurrent vehicle (DMSO, 20 μl/well) and positive controls in duplicate using 6-well plates. […] A reproducible two-fold increase (>2× of vehicle control) of revertant colonies over the daily average control value is considered a positive response of gene mutation for each strain.
2-nitrofluorene and sodium azide served as the positive controls in the absence of S9 for TA98 and TA100 respectively. 2-Aminoanthracene served as the positive controls in the presence of S9 for TA98 and TA100.

Raf, MEK, and ERK = assay: Western blot of RAF-MEK-ERK pathway in H460, A375, BT-474 and H1975 cells; assay type: cell-based; conditions: 100 nM, 16 hours
Procedure: Cell extracts were prepared in the presence of SDS and 2-mercaptoethanol and resolved in polyacrylamide gels. Proteins were transferred to nitrocellulose filter and blotting was done using standard procedures with blocking solutions (Li-Cor Bioscience) containing the indicated primary antibody. Primary antibodies against p-EGFR, EGFR, p-HER2, HER2, p-HER3, HER3, p-MET, MET, p-bRaf, p-cRaf, pMEK, MEK, p-ERK, ERK and tubulin were purchased from Cell Signaling Technology. Secondary antibody conjugated with IRdye 680, 800CW were used and the signal was detected with Li-Cor Odyssey Imager.
One major limitation of PI3K inhibitors in the treatment of cancers is the activation of the RAF-MEK-ERK pathway. HDAC inhibitors are able to inhibit kinase levels in this signaling pathway in cancer cells via epigenetic modification.

MM1S subcutaneous tumor = assay: MM1S xenograft model; assay type: in vivo, SCID/Beige mice; conditions: oral gavage five times per week
Procedure: Female SCID/Beige mice at age 4 weeks were housed in ventilated micro-isolator cages (INNOCAGE®IVC, Innovive Inc., San Diego, Calif.) in a controlled climate, fed with sterile high-fat diet (Problab-RMH 2000) ad libitum and provided with sterilized water. All housing and supplies for SCID/Beige mice were sterilized by autoclaving before use. Mice were inspected daily including weekends/holidays by trained animal facility personnel and investigators. All animal procedures were performed under sterile conditions within a biosafety cabinet (for injections) or laminar flow hood (for animal husbandry and non-invasive procedures).
MM1S human […] cells (Gold-Leikin R E, et al., J Lab Clin Invest. 1980; 113:335-345) were originally obtained from peripheral blood of a multiple myeloma patient. Cryopreserved cells were thawed in a 37° C. water bath and cultured in RPMI medium plus 10% Fetal Bovine Serum (FBS) in a tissue culture incubator at 5% CO2. Cells were sent to outside vendors for contaminants and rodent pathogen screening intended to rule out contamination by mycoplasma (by PCR) and/or virus (by MAP test, Mouse Antibody Production). […] The implanted mice were monitored for general health and tumor development daily.
Tumors were detectable about two weeks following implantation. Tumor size was measured with a caliper. […]
During each animal study, tumors were measured with calipers, tumor size determined using the above mentioned formula, and tumor size changes in percentage calculated. Mouse body weights were measured with a scale twice per week. […] In addition to the determination of tumor size changes, the last tumor measurement was used to generate the tumor weight change ratio (T/C value), a standard metric developed by the National Cancer Institute (NCI) for xenograft tumor evaluation T/C values were calculated using the following formula: % T/C=100×ΔT/ΔC if ΔT>0. […]
The treatment period was 15 days. Tumor sizes and body weights were measured again on the last day of the study.

COc1ccc(-c2nc(N3CCOCC3)c3sc(CN(C)c4ncc(C(=O)NO)cn4)cc3n2)cn1 [Compound 1, N-hydroxy-2-(((2-(6-methoxypyridin-3-yl)-4-morpholinothieno[3,2-d]pyrimidin-6-yl)methyl)(methyl)amino)pyrimidine-5-carboxamide]
Background Lawn TA98 ([1]; +S9, 62.5 μg/well): 4/4 | Revertants per well TA98, Mean ([1]; +S9, 62.5 μg/well): 5 | Revertants per well TA98, well 1 ([1]; +S9, 62.5 μg/well): 4 | Revertants per well TA98, well 2 ([1]; +S9, 62.5 μg/well): 6 | Background Lawn TA98 ([1]; +S9, 125 μg/well): 4/4 | Revertants per well TA98, Mean ([1]; +S9, 125 μg/well): 5 | Revertants per well TA98, well 1 ([1]; +S9, 125 μg/well): 6 | Revertants per well TA98, well 2 ([1]; +S9, 125 μg/well): 3 | Background Lawn TA98 ([1]; +S9, 250 μg/well): 4/4 | Revertants per well TA98, Mean ([1]; +S9, 250 μg/well): 7 | Revertants per well TA98, well 1 ([1]; +S9, 250 μg/well): 8 | Revertants per well TA98, well 2 ([1]; +S9, 250 μg/well): 6 | Background Lawn TA98 ([1]; +S9, 500 μg/well): 3,sp/3,sp | Revertants per well TA98, Mean ([1]; +S9, 500 μg/well): 6 | Revertants per well TA98, well 1 ([1]; +S9, 500 μg/well): 6 | Revertants per well TA98, well 2 ([1]; +S9, 500 μg/well): 6 | Background Lawn TA98 ([1]; +S9, 1000 μg/well): 3,mp/3,mp | Revertants per well TA98, Mean ([1]; +S9, 1000 μg/well): 7 | Revertants per well TA98, well 1 ([1]; +S9, 1000 μg/well): 6 | Revertants per well TA98, well 2 ([1]; +S9, 1000 μg/well): 7 | Mutagenic response TA98 ([1]; presence and absence of S9, up to 1000 μg/well): no evidence of a significant increase in the mean number of revertant colonies; also recorded: did not induce a positive mutagenic response | Background Lawn TA98 ([1]; −S9, 62.5 μg/well): 4/4 | Revertants per well TA98, Mean ([1]; −S9, 62.5 μg/well): 4 | Revertants per well TA98, well 1 ([1]; −S9, 62.5 μg/well): 4 | Revertants per well TA98, well 2 ([1]; −S9, 62.5 μg/well): 4 | Background Lawn TA98 ([1]; −S9, 125 μg/well): 4/4 | Revertants per well TA98, Mean ([1]; −S9, 125 μg/well): 5 | Revertants per well TA98, well 1 ([1]; −S9, 125 μg/well): 4 | Revertants per well TA98, well 2 ([1]; −S9, 125 μg/well): 6 | Background Lawn TA98 ([1]; −S9, 250 μg/well): 4,sp/4,sp | Revertants per well TA98, Mean ([1]; −S9, 250 μg/well): 6 | Revertants per well TA98, well 1 ([1]; −S9, 250 μg/well): 6 | Revertants per well TA98, well 2 ([1]; −S9, 250 μg/well): 5 | Background Lawn TA98 ([1]; −S9, 500 μg/well): 3,sp/3,sp | Revertants per well TA98, Mean ([1]; −S9, 500 μg/well): 4 | Revertants per well TA98, well 1 ([1]; −S9, 500 μg/well): 5 | Revertants per well TA98, well 2 ([1]; −S9, 500 μg/well): 3 | Background Lawn TA98 ([1]; −S9, 1000 μg/well): 3,mp/3,mp | Revertants per well TA98, Mean ([1]; −S9, 1000 μg/well): 5 | Revertants per well TA98, well 1 ([1]; −S9, 1000 μg/well): 4 | Revertants per well TA98, well 2 ([1]; −S9, 1000 μg/well): 5 | Activation of Raf, MEK, and ERK (Raf, MEK, and ERK): suppressed activation of Raf, MEK, and ERK | T/C value (MM1S subcutaneous tumor; day 14, p<0.0001): 27.37% | Body weight and side effects (MM1S subcutaneous tumor; single agent, 15 days): No body weight loss or other side effects were observed | Tumor growth (MM1S subcutaneous tumor; single agent, 15 days): inhibited tumor growth
